Results from ChEMBL document CHEMBL2150920, “Discovery of a potent and selective small molecule hGPR91 antagonist” (Bioorg Med Chem Lett, 2011).
Calls of active or inactive are those of the source. The rule behind the calls is not given here.

Columns and labels:
[1] = Cmax in Wistar rat at 30 mg/kg, po by LC/MS/MS analysis; assay type: ADME, organism-based; design: dose 30 mg/kg, route oral; details: in vivo
[2] = tested on: Liver microsomes; experiment: Intrinsic clearance in rat liver microsomes preincubated for 5 mins before addition of NADPH measured after 30 mins by LC/MS/MS analysis; assay type: ADME, Microsome; details: 0.5 h
[3] = Plasma concentration in Wistar rat plasma at 50 mg/kg, ip at 2 hrs; assay type: ADME, organism-based; design: dose 50 mg/kg, route intraperitoneal
[4] = molecular target: T1, Succinate receptor 1 (Rattus norvegicus, UniProt Q6IYF9); experiment: Antagonist activity at rat GPR91 receptor expressed in CHO-K1 cells co-expressing Galpha and Gqi5 G-protein assessed as inhibition of succinate-induced increase in intracellular calcium level by FLIPR assay; assay type: functional, cell-based
T1 sequence (Q6IYF9 whole entry): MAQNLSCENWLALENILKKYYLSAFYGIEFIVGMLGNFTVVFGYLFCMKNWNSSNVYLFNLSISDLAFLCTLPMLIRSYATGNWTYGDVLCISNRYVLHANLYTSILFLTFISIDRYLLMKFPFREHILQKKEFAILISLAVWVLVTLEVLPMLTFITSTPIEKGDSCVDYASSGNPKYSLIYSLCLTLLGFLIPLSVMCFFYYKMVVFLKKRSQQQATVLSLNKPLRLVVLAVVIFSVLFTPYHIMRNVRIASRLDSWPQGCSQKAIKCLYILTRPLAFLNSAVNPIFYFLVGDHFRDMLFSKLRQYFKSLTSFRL

[5] = Cmax in Wistar rat at 5 mg/kg, iv by LC/MS/MS analysis; assay type: ADME, organism-based; design: dose 5 mg/kg, route intravenous; details: in vivo
[6] = Plasma concentration in Wistar rat plasma at 50 mg/kg, ip at 4 hrs; assay type: ADME, organism-based; design: dose 50 mg/kg, route intraperitoneal
[7] = molecular target: T2, Succinate receptor 1 (Homo sapiens, UniProt Q9BXA5); experiment: Antagonist activity at human GPR91 receptor expressed in CHO-K1 cells co-expressing Galpha and Gqi5 G-protein assessed as inhibition of succinate-induced increase in intracellular calcium level by FLIPR assay; assay type: functional, cell-based
T2 sequence (Q9BXA5 whole entry): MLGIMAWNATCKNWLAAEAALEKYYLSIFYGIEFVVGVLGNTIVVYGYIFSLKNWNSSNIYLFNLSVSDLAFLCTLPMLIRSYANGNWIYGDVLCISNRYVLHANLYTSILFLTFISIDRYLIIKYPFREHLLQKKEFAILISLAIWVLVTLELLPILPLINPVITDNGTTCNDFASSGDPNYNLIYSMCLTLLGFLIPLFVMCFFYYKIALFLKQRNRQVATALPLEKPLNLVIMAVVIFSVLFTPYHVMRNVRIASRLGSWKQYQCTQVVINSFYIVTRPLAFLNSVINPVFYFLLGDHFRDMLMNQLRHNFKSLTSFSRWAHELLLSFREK

[8] = Oral bioavailability in Wistar rat plasma at 30 mg/kg; assay type: ADME, organism-based
[9] = AUC (0 to 8 hrs) in Wistar rat plasma at 50 mg/kg, ip; assay type: ADME, organism-based; design: time < 8 hr, dose 50 mg/kg, route intraperitoneal
[10] = AUC (0 to 24 hrs) in Wistar rat plasma at 30 mg/kg, po; assay type: ADME, organism-based; design: time < 24 hr, dose 30 mg/kg, route oral
[11] = Tmax in Wistar rat at 50 mg/kg, ip; assay type: ADME, organism-based; design: dose 50 mg/kg, route intraperitoneal; details: in vivo
[12] = Cmax in Wistar rat at 50 mg/kg, ip by LC/MS/MS analysis; assay type: ADME, organism-based; design: dose 50 mg/kg, route intraperitoneal; details: in vivo
[13] = Plasma clearance in Wistar rat at 5 mg/kg, iv; assay type: ADME, organism-based; design: dose 5 mg/kg, route intravenous
[14] = Volume of distribution at steady state in Wistar rat at 5 mg/kg, iv; assay type: ADME, organism-based; design: dose 5 mg/kg, route intravenous; details: in vivo, read-out: Vdss
[15] = molecular target: 2-oxoglutarate receptor 1 (Homo sapiens, UniProt Q96P68); experiment: Antagonist activity at human GPR99 receptor expressed in CHO-K1 cells co-expressing Galpha and Gqi5 G-protein assessed as inhibition of succinate-induced increase in intracellular calcium level at by FLIPR assay; assay type: functional, cell-based
2-oxoglutarate receptor 1, sequence (Q96P68 whole entry, looked up): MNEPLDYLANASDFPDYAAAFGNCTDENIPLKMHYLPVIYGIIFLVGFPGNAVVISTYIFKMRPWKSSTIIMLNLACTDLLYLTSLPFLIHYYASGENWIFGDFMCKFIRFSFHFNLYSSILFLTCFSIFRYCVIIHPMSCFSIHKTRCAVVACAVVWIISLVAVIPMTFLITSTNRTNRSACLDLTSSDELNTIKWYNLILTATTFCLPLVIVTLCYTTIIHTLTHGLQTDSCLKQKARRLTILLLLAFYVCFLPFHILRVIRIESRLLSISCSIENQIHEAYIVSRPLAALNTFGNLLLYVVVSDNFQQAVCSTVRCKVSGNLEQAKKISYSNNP

[16] = Terminal half life in Wistar rat at 5 mg/kg, iv; assay type: ADME, organism-based; design: dose 5 mg/kg, route intravenous; details: in vivo, read-out: beta t1/2 (converted)
[17] = Plasma concentration in Wistar rat plasma at 50 mg/kg, ip at 8 hrs; assay type: ADME, organism-based; design: dose 50 mg/kg, route intraperitoneal
[18] = Terminal half life in Wistar rat plasma at 30 mg/kg, po; assay type: ADME, organism-based; design: dose 30 mg/kg, route oral; details: read-out: beta t1/2 (converted)
[19] = Tmax in Wistar rat at 30 mg/kg, po; assay type: ADME, organism-based; design: dose 30 mg/kg, route oral; details: in vivo
[20] = Plasma concentration in Wistar rat plasma at 30 mg/kg, po at 4 hrs; assay type: ADME, organism-based; design: dose 30 mg/kg, route oral
[21] = Plasma concentration in Wistar rat plasma at 30 mg/kg, po at 2 hrs; assay type: ADME, organism-based; design: dose 30 mg/kg, route oral
[22] = molecular target: T3, Succinate receptor 1 (Homo sapiens) (UniProt Q9BXA5); experiment: Antagonist activity at human GPR91 receptor expressed in CHO-K1 cells co-expressing Galpha and Gqi5 G-protein assessed as inhibition of succinate-induced increase in intracellular calcium level at 10 uM by FLIPR assay; assay type: functional, cell-based
T3 sequence (whole entry): T2 sequence (Q9BXA5 whole entry)

[23] = tested on: Rattus norvegicus; experiment: Hypotensive activity in Wistar rat assessed as inhibition of succinate-induced increase in mean arterial pressure at 50 mg/kg, ip after 4 hrs post dose; assay type: functional; details: Artery, route intraperitoneal
[24] = tested on: Rattus norvegicus; experiment: Hypotensive activity in Wistar rat assessed as inhibition of succinate-induced increase in mean arterial pressure at 50 mg/kg, ip after 2 hrs post dose; assay type: functional; details: Artery, route intraperitoneal
[25] = Plasma protein binding in Wistar rat at 50 mg/kg, ip; assay type: ADME, organism-based; design: dose 50 mg/kg, route intraperitoneal; details: read-out: PPB
[26] = Drug concentration in Wistar rat kidney at 50 mg/kg, ip after 4 hrs; assay type: ADME, organism-based; design: dose 50 mg/kg, route intraperitoneal; details: read-out: Drug uptake

For `O=C(CCCc1ccc2cccnc2n1)NCc1cc(-c2ccc(F)c(C(F)(F)F)c2)no1`, the Cmax [1] was 37 µM, the Intrinsic clearance [2] was 0.12 nmol/min/mg and the concentration at 2 h [3] was 22 µM. The IC50 [4] was 135 nM, the Cmax [5] was 40 µM and the concentration at 4 h [6] was 19 µM. It also gave an IC50 [7] of 35 nM, a bioavailability [8] of 26% and an AUC(0-t) at 8 h [9] of 267 µM·h. The AUC(0-t) at 24 h [10] was 69 µM·h, the Tmax [11] was 2 h and the Cmax [12] was 22 µM. The clearance [13] was 4.7 mL/min/kg, the Vd [14] was 0.36 L/kg and the IC50 [15] was > 30000 nM. For the same compound, the half-life [16] was 1.1 h, the concentration at 8 h [17] was 19 µM and the half-life [18] was 0.9 h. For the same compound, the Tmax [19] was 0.5 h, the concentration at 4 h [20] was 2.6 µM and the concentration at 2 h [21] was 11.3 µM.
In the case of `CC(=O)Nc1cccc(-c2ccc(CNC(=O)CCCc3ccc4cccnc4n3)cc2)c1`, the inhibition [22] is reported as “inactive”.
In the case of `N#Cc1cccc(-c2ccc(CNC(=O)CCCc3ccc4cccnc4n3)cc2)c1`, the Intrinsic clearance [2] is reported as 0.1 nmol/min/mg and the inhibition [22] is reported as “inactive”.
In the case of `NC(=O)c1cccc(-c2ccc(CNC(=O)CCCc3ccc4cccnc4n3)cc2)c1`, the Intrinsic clearance [2] is reported as 0.04 nmol/min/mg and the inhibition [22] is reported as “inactive”.
In the case of `O=C(NCc1ccc(-c2ccccc2)cc1)c1ccc(-c2ccc3cccnc3n2)cc1`, the Intrinsic clearance [2] is reported as 0.02 nmol/min/mg and the inhibition [22] is reported as “inactive”.
`C[C@H](NC(=O)CCCc1ccc2cccnc2n1)c1ccc(-c2cccc(Cl)c2)cc1` gave an Intrinsic clearance [2] of 0.42 nmol/min/mg, an IC50 [4] of 100 nM and a Cmax [5] of 19 µM. The IC50 [7] was 11 nM, the clearance [13] was 14.8 mL/min/kg and the Vd [14] was 0.7 L/kg. The IC50 [15] was 2000 nM and the half-life [16] was 0.8 h.
In the case of `CS(=O)(=O)c1cccc(-c2ccc(CNC(=O)CCCc3ccc4cccnc4n3)cc2)c1`, the Intrinsic clearance [2] is reported as 0.1 nmol/min/mg and the inhibition [22] is reported as “inactive”.
Compound `FC(F)(F)Oc1ccc(-c2nnc(CCCCc3ccc4cccnc4n3)o2)cc1Cl` has a Cmax [1] of 72 µM, an Intrinsic clearance [2] of 0.17 nmol/min/mg and a Cmax [5] of 56 µM. For the same compound, the IC50 [7] was 180 nM, the bioavailability [8] was 87% and the AUC(0-t) at 24 h [10] was 472 µM·h. The clearance [13] was 2 mL/min/kg, the Vd [14] was 0.2 L/kg and the IC50 [15] was > 20000 nM. It also gave a half-life [16] of 1.3 h, a half-life [18] of 3.4 h and a Tmax [19] of 1.5 h. It also gave a concentration at 4 h [20] of 40.5 µM and a concentration at 2 h [21] of 70 µM.
Work on `Clc1cccc(-c2ccc(-c3nnc(CCCc4ccc5cccnc5n4)o3)cc2)c1` yielded an Intrinsic clearance [2] of 0.3 nmol/min/mg, an IC50 [4] of 67 nM and a Cmax [5] of 9.3 µM. It also gave an IC50 [7] of 40 nM, a clearance [13] of 51 mL/min/kg and a Vd [14] of 1.9 L/kg. It also gave an IC50 [15] of 5000 nM and a half-life [16] of 0.9 h.
`FC(F)(F)c1cc(-c2nnc(CCCCc3ccc4cccnc4n3)o2)ccc1Cl` showed an Intrinsic clearance [2] of 0.3 nmol/min/mg, a concentration at 2 h [3] of 19 µM and an IC50 [4] of 435 nM. The Cmax [5] was 92 µM, the concentration at 4 h [6] was 20 µM and the IC50 [7] was 160 nM. For the same compound, the AUC(0-t) at 8 h [9] was 304 µM·h, the Tmax [11] was 2.7 h and the Cmax [12] was 21 µM. For the same compound, the clearance [13] was 4.8 mL/min/kg, the Vd [14] was 0.1 L/kg and the IC50 [15] was > 30000 nM. The half-life [16] was 0.3 h and the concentration at 8 h [17] was 15 µM.
`Cc1cccc(-c2ccc(CNC(=O)CCCc3ccc4cccnc4n3)cc2)c1` gave an Intrinsic clearance [2] of 1.2 nmol/min/mg, a concentration at 2 h [3] of 1.8 µM and an IC50 [4] of 7 nM. It also gave a Cmax [5] of 19 µM, a concentration at 4 h [6] of 2 µM and an IC50 [7] of 30 nM. The inhibition in vivo at 50 mg/kg [23] was 67%, the AUC(0-t) at 8 h [9] was 17.4 µM·h and the inhibition in vivo at 50 mg/kg [24] was 71%. The Tmax [11] was 1.8 h, the Cmax [12] was 3.7 µM and the clearance [13] was 64.7 mL/min/kg. The Vd [14] was 0.5 L/kg, the IC50 [15] was > 30000 nM and the half-life [16] was 0.1 h. For the same compound, the concentration at 8 h [17] was 1.1 µM, the fraction unbound [25] was 0.01 and the concentration at 4 h [26] was 7 µM.
For `CCOC(=O)c1cccc(-c2ccc(CNC(=O)CCCc3ccc4cccnc4n3)cc2)c1`, the inhibition [22] was “inactive”.
For `O=C(O)Cc1cccc(-c2ccc(CNC(=O)CCCc3ccc4cccnc4n3)cc2)c1`, the inhibition [22] was “inactive”.
